{"source": "paper PMC11739741", "about": "(Clinical Pharmacology and Therapeutics, 2024)", "key": {"[1]": {"assay": "MTX/GLPG3970 DDI study: plasma pharmacokinetics", "assay_type": "in vivo, human", "details": "for Intra‐participant variability of AUC0–∞ and C max: MTX/GLPG3970 DDI study; for AUC(0-inf): AUC0–∞"}, "[2]": {"details": "cited from earlier work"}, "[3]": {"system": "breast cancer resistance protein (BCRP)", "details": "at clinically relevant concentrations; ref unpublished data; cited from earlier work"}, "[4]": {"details": "cited from earlier work", "remark": "listed apart in the source"}, "[5]": {"assay": "SSZ/GLPG3970 DDI study: plasma pharmacokinetics", "assay_type": "in vivo, human", "details": "for AUC(0-t) / AUC(0-inf) / Cmax: human, plasma, oral, geometric LS mean (95% CI); for AUC(0-t): AUC0–t; for AUC(0-inf): AUC0–∞; for Cmax: C max"}, "[6]": {"details": "Day 5 (GLPG3970 + MTX) vs. day 1 (MTX alone)"}, "[7]": {"details": "GLPG3970 350 mg + MTX 7.5 mg, Day 5 (n = 14)"}, "[8]": {"details": "MTX 7.5 mg alone, Day 1 (n = 15)"}, "[9]": {"details": "Day 5 (GLPG3970 + SSZ) vs. day 1 (SSZ alone)"}, "[10]": {"details": "Day 9 (GLPG3970 2 h after SSZ) vs. day 1 (SSZ alone)"}, "[11]": {"details": "1000 mg, SSZ 1,000 mg alone, Day 1 (n = 8)"}, "[12]": {"details": "GLPG3970 350 mg 2 h after SSZ 1,000 mg, Day 9 (n = 7)"}, "[13]": {"details": "GLPG3970 350 mg + SSZ 1,000 mg, Day 5 (n = 7)"}}, "note": "“Also recorded” adds a separate entry of the source. Like-named read-outs stand apart in the source and are kept apart here.", "data": [{"smiles": "CN(Cc1nc2c(N)nc(N)nc2[nH]c1=O)c1ccc(C(=O)N[C@@H](CCC(=O)O)C(=O)O)cc1", "note": "[7‐OH‐MTX, 7‐hydroxy‐methotrexate]", "values": [{"measurement": "AUC0–t, geometric LS mean ratio (90% CI)", "setting": "[1]; [6]", "value": "80 (69, 92) %"}, {"measurement": "C max, geometric LS mean ratio (90% CI)", "setting": "[1]; [6]", "value": "77 (72, 82) %"}, {"measurement": "AUC0–t, geometric LS mean (95% CI)", "setting": "[1]; [7]", "value": "392 (332, 463) ng.h/mL"}, {"measurement": "C max, geometric LS mean (95% CI)", "setting": "[1]; [7]", "value": "27.0 (23.9, 30.4) ng/mL"}, {"measurement": "AUC0–t, geometric LS mean (95% CI)", "setting": "[1]; [8]", "value": "490 (418, 576) ng.h/mL"}, {"measurement": "C max, geometric LS mean (95% CI)", "setting": "[1]; [8]", "value": "35.0 (31.1, 39.4) ng/mL"}, {"measurement": "Reduction in AUC0–t", "setting": "[1]; MTX + GLPG3970 vs. MTX alone", "value": 20, "unit": "%"}, {"measurement": "Reduction in C max", "setting": "[1]; MTX + GLPG3970 vs. MTX alone", "value": 23, "unit": "%"}, {"measurement": "Reduction in exposure", "setting": "[1]; MTX + GLPG3970 vs. MTX alone", "value": "20–23%"}, {"measurement": "Intra‐participant variability of AUC0–∞ and C max", "setting": "[1]", "value": "10–22%"}]}, {"smiles": "COc1cc(-c2cnc3cc(OCCN4CCOCC4)ccn23)cc2c1C(=O)N(CC(F)(F)F)CC2", "note": "[GLPG3970]", "values": [{"measurement": "Dose proportionality of exposure (AUC)", "setting": "[2]; across the evaluated dose range", "value": "increased more than the dose proportionally"}, {"measurement": "Effect of food consumption on C max", "setting": "[2]; preliminary work, ref not given", "value": "reduced"}, {"measurement": "Tolerability", "setting": "[2]; single and multiple ascending doses, healthy volunteers", "value": "well tolerated"}, {"measurement": "Inhibition of BCRP in vitro", "setting": "[3]", "value": "strongly inhibits; also recorded: strong inhibition"}]}, {"smiles": "CN(Cc1cnc2nc(N)nc(N)c2n1)c1ccc(C(=O)N[C@@H](CCC(=O)O)C(=O)O)cc1", "note": "[MTX, methotrexate, reference compound]", "values": [{"measurement": "AUC0–t, geometric LS mean (95% CI)", "setting": "[1]; [7]", "value": "583 (523, 649) ng.h/mL"}, {"measurement": "Time after which plasma concentrations fell below the LLOQ", "setting": "[1]; MTX 7.5 mg, LLOQ 5 ng/mL", "value": 12, "unit": "h"}, {"measurement": "Intra‐participant variability of AUC0–∞ and C max", "setting": "[1]", "value": "10–22%"}, {"measurement": "AUC(0-t)", "setting": "[1]; human, plasma, oral, 7.5 mg, AUC0–t, geometric LS mean (95% CI), MTX 7.5 mg alone, Day 1 (n = 15)", "value": 0.627, "unit": "µg·h/mL"}, {"measurement": "AUC(0-inf)", "setting": "[1]; human, plasma, oral, 7.5 mg, geometric LS mean (95% CI), MTX 7.5 mg alone, Day 1 (n = 13)", "value": 0.677, "unit": "µg·h/mL"}, {"measurement": "AUC(0-inf)", "setting": "[1]; human, plasma, oral, geometric LS mean (95% CI), GLPG3970 350 mg + MTX 7.5 mg, Day 5 (n = 12)", "value": 0.614, "unit": "µg·h/mL"}, {"measurement": "Cmax", "setting": "[1]; human, plasma, oral, C max, geometric LS mean (95% CI), GLPG3970 350 mg + MTX 7.5 mg, Day 5 (n = 14)", "value": 193, "unit": "ng/mL"}, {"measurement": "fraction of dose metabolized in the liver", "setting": "[4]", "value": "Approximately 10%"}, {"measurement": "mean t 1/2", "setting": "[4]", "value": "3 to 10", "unit": "h"}, {"measurement": "bioavailability", "setting": "[4]; oral dosing", "value": "~ 60%"}, {"measurement": "excreted unchanged in urine", "setting": "[4]; within 24 hours", "value": "80–90%"}]}, {"smiles": "Nc1ccc(S(=O)(=O)Nc2ccccn2)cc1", "note": "[SPD, sulfapyridine]", "values": [{"measurement": "AUC0–t, geometric LS mean ratio (90% CI)", "setting": "[5]; [9]", "value": "90 (81, 100) %"}, {"measurement": "AUC0–∞, geometric LS mean ratio (90% CI)", "setting": "[5]; [9]", "value": "90 (81, 101) %"}, {"measurement": "C max, geometric LS mean ratio (90% CI)", "setting": "[5]; [9]", "value": "90 (78, 102) %"}, {"measurement": "AUC0–t, geometric LS mean ratio (90% CI)", "setting": "[5]; [10]", "value": "89 (80, 99) %"}, {"measurement": "AUC0–∞, geometric LS mean ratio (90% CI)", "setting": "[5]; [10]", "value": "89 (80, 100) %"}, {"measurement": "C max, geometric LS mean ratio (90% CI)", "setting": "[5]; [10]", "value": "94 (82, 107) %"}, {"measurement": "Effect of GLPG3970 on SPD exposure", "setting": "[5]; SSZ with GLPG3970 (simultaneously or 2 h before) vs. SSZ alone", "value": "similar; also recorded: no relevant effect"}, {"measurement": "AUC(0-t)", "setting": "[5]; [11]", "value": 119, "unit": "µg·h/mL"}, {"measurement": "AUC(0-inf)", "setting": "[5]; [11]", "value": 125, "unit": "µg·h/mL"}, {"measurement": "Cmax", "setting": "[5]; [11]", "value": 5680, "unit": "ng/mL"}, {"measurement": "AUC(0-t)", "setting": "[5]; [12]", "value": 106, "unit": "µg·h/mL"}, {"measurement": "AUC(0-t)", "setting": "[5]; [13]", "value": 107, "unit": "µg·h/mL"}, {"measurement": "AUC(0-inf)", "setting": "[5]; [12]", "value": 112, "unit": "µg·h/mL"}, {"measurement": "AUC(0-inf)", "setting": "[5]; [13]", "value": 113, "unit": "µg·h/mL"}, {"measurement": "Cmax", "setting": "[5]; [12]", "value": 5310, "unit": "ng/mL"}, {"measurement": "Cmax", "setting": "[5]; [13]", "value": 5090, "unit": "ng/mL"}, {"measurement": "mean plasma t 1/2", "setting": "[4]; fast acetylation phenotype (NAT2)", "value": 10.4, "unit": "h"}, {"measurement": "mean plasma t 1/2", "setting": "[4]; slow acetylation phenotype (NAT2)", "value": 14.8, "unit": "h"}]}, {"smiles": "O=C(O)c1cc(/N=N/c2ccc(S(=O)(=O)Nc3ccccn3)cc2)ccc1O", "note": "[SSZ, sulfasalazine, reference compound]", "values": [{"measurement": "AUC(0-t)", "setting": "[5]; [11]", "value": 59.3, "unit": "µg·h/mL"}, {"measurement": "AUC(0-inf)", "setting": "[5]; [11]", "value": 59.8, "unit": "µg·h/mL"}, {"measurement": "Cmax", "setting": "[5]; [11]", "value": 7270, "unit": "ng/mL"}, {"measurement": "AUC(0-t)", "setting": "[5]; [12]", "value": 109, "unit": "µg·h/mL"}, {"measurement": "AUC(0-t)", "setting": "[5]; [13]", "value": 108, "unit": "µg·h/mL"}, {"measurement": "AUC(0-inf)", "setting": "[5]; [12]", "value": 110, "unit": "µg·h/mL"}, {"measurement": "AUC(0-inf)", "setting": "[5]; [13]", "value": 109, "unit": "µg·h/mL"}, {"measurement": "Cmax", "setting": "[5]; [12]", "value": 13100, "unit": "ng/mL"}, {"measurement": "Cmax", "setting": "[5]; [13]", "value": 12000, "unit": "ng/mL"}, {"measurement": "Time at which systemic concentrations are detectable post‐dosing", "setting": "[4]; oral, literature, ref not given", "value": "~ 1.5 hours"}, {"measurement": "t max", "setting": "[4]; post‐dosing, oral SSZ, literature, ref not given", "value": "3 to 12", "unit": "h"}]}]}
